Values of other authors in PubChem BioAssay AID1259409 (Chemical Carcinogenesis Research Information System (CCRIS), 2018).

Tested on: rodent chemically induced tumor inhibition, incidence and multiplicity
Test: CCRIS tumor inhibitor studies

What does the source list for `Oc1cc(O)c2c(c1)O[C@H](c1cc(O)c(O)c(O)c1)[C@H](O)C2`?
tumour outcome (control, treated, inhibition, significance) (Carcinogen: 4-METHYLNITROSAMINO-1-(3-PYRIDYL)-1-BUTANONE, 64091-91-4, Dose [Inhibitor]: 0, 560 PPM IN DRINKING WATER 2 WK PRIOR TO CARCINOGEN AND CONTINUING FOR 13 WK (STUDY DURATION: 29 WK), Route [Inhibitor]: ORAL, Species: MOUSE, Strain/Sex: A/J/FEMALE, Target Tissue: Type of Lesion: LUNG: ADENOMA, Dose [Carcinogen]: 11.65 MG/KG IN CORN OIL 3/WK FOR 10 WK, Promoter: NONE USED): 100%, 100%, 0%, not significant; tumour outcome (control, treated, inhibition, significance) (Carcinogen: N-ETHYL-N'-NITRO-N-NITROSOGUANIDINE, 4245-77-6, Dose [Inhibitor]: 0, 0.005% IN DRINKING WATER BEGINNING POST CARCINOGEN TREATMENT AND CONTINUING FOR DURATION OF STUDY (STUDY DURATION: 16, Route [Inhibitor]: ORAL, Species: MOUSE, Strain/Sex: C57BL/MALE, Target Tissue: Type of Lesion: DUODENUM: TUMOR, Dose [Carcinogen]: 100 MG/L IN DRINKING WATER FOR 4 WK, Promoter: NONE USED): 20/36 (63%), 6/30 (20%), 68%, p<0.001; tumour outcome (control, treated, inhibition, significance) (Carcinogen: N-METHYL-N'-NITRO-N-NITROSOGUANIDINE, 70-25-7, Dose [Inhibitor]: 0, 0.005% IN DRINKING WATER BEGINNING POST CARCINOGEN TREATMENT AND CONTINUING FOR DURATION OF STUDY (STUDY DURATION: 44, Route [Inhibitor]: ORAL, Species: RAT, Strain/Sex: WISTAR/MALE, Target Tissue: Type of Lesion: GLANDULAR STOMACH: TUMOR, Dose [Carcinogen]: 100 MG/L IN DRINKING WATER FOR 28 WK, Promoter: NONE USED): 10/14 (71%), 6/10 (60%), 15%, not significant; tumour outcome (control, treated, inhibition, significance) (Carcinogen: N-METHYL-N'-NITRO-N-NITROSOGUANIDINE, 70-25-7, Dose [Inhibitor]: 0, 0.05% IN DRINKING WATER BEGINNING POST CARCINOGEN TREATMENT AND CONTINUING FOR DURATION OF STUDY (STUDY DURATION: 44, Route [Inhibitor]: ORAL, Species: RAT, Strain/Sex: WISTAR/MALE, Target Tissue: Type of Lesion: GLANDULAR STOMACH: TUMOR, Dose [Carcinogen]: 80 MG/L IN DRINKING WATER FOR 28 WK, Promoter: NONE USED): 21/34 (62%), 11/35 (31%), 50%, p<0.05; tumour outcome (control, treated, inhibition, significance) (Carcinogen: PEROXYNITRITE [19059-14-4], Dose [Inhibitor]: 0.0025% IN WATER FROM 1 WK BEFORE TO 1 WK AFTER INITIATION, Route [Inhibitor]: DRINKING WATER, Species: MOUSE, Strain/Sex: SENCAR/FEMALE, Target Tissue: Type of Lesion: SKIN: PAPILLOMA, Dose [Carcinogen]: 390 UMOL ONCE (STUDY DURATION: 20 WKS), Promoter: TETRADECANOYL PHORBOL ACETATE [16561-29-8]): 100%; 10%, 90% (at wk 11)

With `CC1=C(O)C(=O)CO1` as the molecule, how does the “tumour outcome (control, treated, inhibition, significance)” value (Carcinogen: BENZO[A]PYRENE, 50-32-8, Dose [Inhibitor]: 0, 25 PPM IN DIET FOR 17 WK BEGINNING 1 WK POST CARCINOGEN TREATMENT (STUDY DURATION: 21 WK), Route [Inhibitor]: ORAL, Species: MOUSE, Strain/Sex: ICR/FEMALE, Target Tissue: Type of Lesion: FORESTOMACH: TUMOR, Dose [Carcinogen]: 1.5 MG IN 0.2 ML CORN OIL 1/WK FOR 4 WK, Promoter: NONE USED) read?
Its value is 90%, 80%, 11%, not significant.

And the “tumour outcome (control, treated, inhibition, significance)” value (Carcinogen: BENZO[A]PYRENE, 50-32-8, Dose [Inhibitor]: 0, 50 PPM IN DIET FOR 17 WK BEGINNING 1 WK POST CARCINOGEN TREATMENT (STUDY DURATION: 21 WK), Route [Inhibitor]: ORAL, Species: MOUSE, Strain/Sex: ICR/FEMALE, Target Tissue: Type of Lesion: FORESTOMACH: TUMOR, Dose [Carcinogen]: 1.5 MG IN 0.2 ML CORN OIL 1/WK FOR 4 WK, Promoter: NONE USED)?
The value was 90%, 85%, 6%, not significant.

And the “tumour outcome (control, treated, inhibition, significance)” value (Carcinogen: BENZO[A]PYRENE, 50-32-8, Dose [Inhibitor]: 0, 75 PPM IN DIET FOR 17 WK BEGINNING 1 WK POST CARCINOGEN TREATMENT (STUDY DURATION: 21 WK), Route [Inhibitor]: ORAL, Species: MOUSE, Strain/Sex: ICR/FEMALE, Target Tissue: Type of Lesion: FORESTOMACH: TUMOR, Dose [Carcinogen]: 1.5 MG IN 0.2 ML CORN OIL 1/WK FOR 4 WK, Promoter: NONE USED)?
Its value is 90%, 80%, 11%, not significant.

Which “tumour outcome (control, treated, inhibition, significance)” value (Carcinogen: 7,12-DIMETHYLBENZ[A]ANTHRACENE, 57-97-6, Dose [Inhibitor]: 140 NMOL IN 0.2 ML ACETONE 2/WK (D 1 AND D 4 OF EACH WK) 1 HR BEFORE EACH PROMOTER APPLICATION STARTING 14 D AFTER CARCI, Route [Inhibitor]: DERMAL, Species: MOUSE, Strain/Sex: CD-1/FEMALE, Target Tissue: Type of Lesion: SKIN: PAPILLOMA, Dose [Carcinogen]: 0.2 UMOL IN 0.2 ML ACETONE ONCE, Promoter: 12-O-TETRADECANOYLPHORBOL-13-ACETATE, 16561-29-8) does the source give for `CCOC(=O)/C=C(/C=C/C=C(C)/C=C/c1c(C)cc(OC)c(C)c1C)C(F)(F)F` here?
The value was 90%, 100%, -11%, not significant.
